We go through 3 compounds from patent US9290789B2, “Method for measuring cells, and reagent for cell measurement” (HITACHI HIGH-TECHNOLOGIES CORPORATION, priority 2011, dated 2016).

Where only a bound is given, the exact number is not on record here.

Data set [1] deals with ATP•luciferase•luciferin reaction. The data set is described as follows: Effect of methanol on ATP luminescent reaction. The format is biochemical. The following applies: 1000 amol ATP/50 μL; for Relative luminescence: methanol-free ATP solution = 100. Here is the method:
1 mL of an ATP solution (2×10^5 amol ATP/mL, Kikkoman Biochemifa Company Lucifer ATP standard reagent set) was mixed with 10 μl to 5 mL of 100% methanol (Wako Pure Chemical Industries, Ltd.). Water (Invitrogen) was further added to each solution, and thus ATP/methanol solutions (10 mL each) with final methanol concentrations ranging from 0.1 to 50 (v/v) % were prepared (ATP concentration: 2×10^4 amol ATP/mL). Subsequently, 50 μL of the ATP/methanol solution and 50 μL of a luminescent reagent (Kikkoman Biochemifa Company, included with a Lucifer HS set) were mixed to cause a luminescent reaction to take place. The resulting luminescence levels were measured by photocounting using a photomultiplier.
For comparison, 1 mL of a methanol-free ATP solution (2×10^4 amol ATP/mL) was prepared. Subsequently, 50 μL of an ATP solution and 50 μL of the luminescent reagent were mixed to cause a luminescent reaction to take place, and then the luminescence level was measured.

The subject of another data set is ATPase. Description: Residual ATPase activity according to methanol concentrations. The format is biochemical. The following applies: 37° C. for 30 minutes. Here is the method:
10 μL of an ATPase-containing ATP elimination solution (Kikkoman Biochemifa Company, ATP elimination reagent included with a Lucifer HS set) was mixed with 80 μL of methanol, the concentration of which had been adjusted. An ATP solution (2×10^6 amol/10 μL) was added to the solution and then it was left to stand at 37° C. for 30 minutes. In addition, the final methanol concentrations were adjusted to 0.1 to 80 (v/v) %.
To measure the remaining ATP level after the addition of the above mixture to a luminescent reagent, the mixture was diluted in water to a methanol concentration of 0.1 (v/v) % or less, assuring that the methanol would not affect the ATP luminescent reaction (Reference Example 2, Table 2). Subsequently, 50 μL of the diluted solution (1×10^3 amol ATP/50 μL) was added to 50 μL of the luminescent reagent, and then the luminescence level was measured. Furthermore, an ATP solution (1×10^3 amol/50 μL) to which no ATPase had been added was prepared. The luminescence level according to the ATP solution was also measured. The luminescence level of the ATPase-free ATP solution was considered almost the same as that of an ATP solution to which ATP had been added after the loss of ATPase activity.

A further data set concerns Bacillus subtilis. Description: Cell viability (colony count) after methanol exposure. The format is cell-based. The following applies: 80 (v/v) % methanol, 1 minute; colony count at 0% methanol = 100%. Here is the method:
(§1) 10 μL of a cell suspension and 90 μL of methanol, the concentration of which had been adjusted, were mixed, thereby preparing 100 μL of a cell/methanol suspension. The final methanol concentrations ranged from 0 to 80 (v/v) %. As microorganisms (cells), Bacillus subtilis (bacterium, spores, ATCC 6633), Staphylococcus aureus (bacterium, aerobic, ATCC 6538), and Candida albicans (fungus, yeast, ATCC 10231) were used. Each cell suspension was mixed with methanol and then the mixture was left to stand for 1 minute. In the case of bacteria, the mixture was applied and spread over R2A medium (Nissui Pharmaceutical Co., Ltd.) and then cultured at 25° C. for 7 days. In the case of fungi, the mixture was applied and spread over PDA medium (Nissui Pharmaceutical Co., Ltd.) and then cultured at 25° C. for 5 days. After culture, the colony count was then measured according to each methanol concentration. The colony count in the case of 0% methanol was designated as 100% cell viability. Cell viability according to each methanol concentration was examined.

The next data set deals with Staphylococcus aureus. The description is as above. In kind it is cell-based. The following applies: maximum of 30 (v/v) % methanol, 1 minute; colony count at 0% methanol = 100%. Here is the method: as §1
The subject of the next data set is Candida albicans. The data set is described as above. In kind it is cell-based. The following applies: maximum of 30 (v/v) % methanol, 1 minute; colony count at 0% methanol = 100%. Here is the method:
as §1

Data set [2] relates to Methylobacterium extorquens. Description: Intracellular ATP level by ATP luminescence method. In kind it is cell-based. Here is the method:
An M. extorquens cell suspension was prepared according to the following procedures. M. extorquens was cultured with agitation in 5 mL of SCD liquid medium (Nissui Pharmaceutical Co., Ltd.) for 72 hours at 25° C. The culture solution (medium) was dispensed into tubes, and then centrifuged for 10 minutes at 10000 rpm, so as to collect cells onto the tube bottoms. Supernatant was removed, and then water was added instead, to suspend cells. Centrifugation was performed again for 10 minutes at 10000 rpm, so as to collect cells onto the tube bottoms. This step was repeated 3 times, medium components were removed, and thus a cell suspension was prepared. Subsequently, the cells were cultured with agitation in water for injection for 3 days at 37° C., so that a cell suspension for ATP luminescence measurement was prepared. […]
Reagents included in a Lucifer HS set (Kikkoman Biochemifa Company) were used as reagents for ATP luminescence measurement. In addition, the Lucifer HS set comprises an ATP elimination enzyme, an ATP extraction reagent, and a luminescent reagent included therewith. […]
100 μL of an ATP extraction solution was added to 100 μL of the mixture after heating. 50 μL of each sample after ATP extraction was added to 50 μL of the luminescent reagent. The thus generated luminescence was measured.
10 μL each of glucose (Wako Pure Chemical Industries, Ltd.), alanine (Wako Pure Chemical Industries, Ltd.), ATPase, 10% methanol, and a phosphate buffer (pH 7.4) (Invitrogen) were added to 50 μL of the M. extorquens cell suspension, thereby preparing a total of 100 μL of a mixture. When glucose, alanine, and methanol were not added, the solution was adjusted to a total 100 μL volume with a phosphate buffer (Table 3, sample Nos. 1 to 5). The mixture was heated at 37° C. for 30 minutes. In the extracellular ATP removal•intracellular ATP increase step (for removing ATP outside of viable cells and increasing ATP within viable cells), 100 μL of an ATP extraction solution was added to 100 μL of the mixture (Table 3, sample Nos. 1 to 4). For comparison of the ATP extraction efficiency of methanol, in the ATP extraction step, 100 μL, of the mixture was mixed with 100 μL of a 1% methanol-containing ATP extraction solution (Table 3, sample No. 5). After ATP extraction, 50 μL of the sample was added to 50 μL of the luminescent reagent, and then the thus generated luminescence was measured. […]
10 μL each of glucose, alanine, ATPase, and if necessary, 10 (v/v) % methanol were added to 50 μL of the M. extorquens cell suspension. Finally, a phosphate buffer (pH 7.4) (Invitrogen) was added for adjustment to a total 100 μL volume. The final concentrations of glucose and alanine ranged from 0.1 mM to 100 mM, and the final concentrations of ATPase and methanol were 10 (v/v) % and 1 (v/v) %, respectively. Each mixture was heated at 37° C. for 30 minutes. 100 μL of an ATP extraction solution was added to 100 μL of the heated mixture, and then 50 μL of sample after ATP extraction was added to 50 μL of a luminescent reagent. The thus generated luminescence was measured.
10 μL each of glucose, alanine, ATPase, and methanol were added to 50 μL of the M. extorquens cell suspension. Finally, a phosphate buffer (pH 7.4) (Invitrogen) was added for adjustment to a total 100 μL volume. The final concentrations of glucose and alanine were each 0.1 mM, the final ATPase concentration was 10 (v/v) %, and the final methanol concentrations ranged from 0% to 80%. Each mixture was heated at 37° C. for 30 minutes. After heating, to remove methanol-containing mixtures, all mixtures were subjected to centrifugal filtration (1 min, 2000 rpm) using Ultrafree-MC, and then mixtures as filtrates were discarded. Subsequently, 200 μL of water was added onto the filter and filtrated to wash the filter. In addition, washing was repeated 5 times. […]

`CO` [Methanol, methanol]: the Luminescence level in data set [1] (0.1% Methanol) is on record as 12703 CPS; in data set [1] (1% Methanol), 10200 CPS; in data set [1] (10% Methanol), 3345 CPS; in data set [1] (50% Methanol), 13 CPS; in data set [1] (50% Methanol, listed as methanol) it was “almost no fluorescence”. In addition, the Relative luminescence in data set [1] (0.1% Methanol) worked out at 110%; in data set [1] (1% Methanol) it was 88%; in data set [1] (10% Methanol), 29%; in data set [1] (50% Methanol), 0%. Also, the “Residual ATPase activity” value in the data set on ATPase (methanol concentration 80 (v/v) %) is 20%; with ATPase (methanol concentrations 0 to 50 (v/v) %) it was “retained the activity”. The “Cell viability of B. subtilis” value in the data set on Bacillus subtilis was 100%. For the same compound, in the data set on Staphylococcus aureus, the “Cell viability of S. aureus” value is given as ≥ 90%. For the same compound, the “Cell viability of C. albicans” value in the data set on Candida albicans is listed as ≥ 90%. The “Intracellular ATP level of M. extorquens” value is reported as 1.2 amol/CFU in data set [2] (1% methanol added to 0.1 mM alanine and 0.1 mM glucose (FIG. 4C)); 1.1 amol/CFU in data set [2] (methanol 0.1% to 20%, 0.1 mM glucose, 0.1 mM alanine, 10% ATPase, filtration (FIGS. 5A and B)); 1.5 amol/CFU in data set [2] (methanol 0.5%, 0.1 mM glucose, 0.1 mM alanine, 10% ATPase, filtration (FIG. 5A)); 0.15 amol/CFU in data set [2] (methanol 30% or more, 0.1 mM glucose, 0.1 mM alanine, 10% ATPase, filtration (FIG. 5B)). The “Intracellular ATP level of M. extorquens, % of the maximum” value in data set [2] (methanol 0.1% to 20%, 0.1 mM glucose, 0.1 mM alanine, 10% ATPase, filtration) was ≥ 70%. In addition, the “Decrease of intracellular ATP level of M. extorquens” value in data set [2] (methanol 30% or more, relative to the maximum at 0.5% methanol) is recorded as 90%.

For the compound `C[C@H](N)C(=O)O` [alanine], in data set [2] (alanine 1 mM or less in the presence of 1 (v/v) % methanol and 100 mM glucose (FIG. 4A)), the “Intracellular ATP level of M. extorquens” value is reported as 0.9 amol/CFU.

With `O=C[C@H](O)[C@@H](O)[C@H](O)[C@H](O)CO` [glucose], in data set [2] (glucose varied 0.1 mM to 100 mM in the presence of 1 (v/v) % methanol and 50 mM alanine (FIG. 4B)), the “Intracellular ATP level of M. extorquens” value is “about 0.5 amol/CFU”.
